Source: patent US20240358727A1, “MICROSCALE THERMOPHORESIS TO EVALUATE CHANNEL LIPID INTERACTIONS AND METHODS OF TREATING NAV CHANNELS RELATED DISEASES” (Northeastern University, priority 2023, published 2024)
“Also recorded” adds a separate entry of the source.

Target: T1, Nav1.5 channel currents (INa, ILATE) in M3q iPS-CMs (Homo sapiens, UniProt Q14524)
T1 construct: host or cells: human iCell^2 iPS cardiomyocytes (transfected with M3q DREADD in A5; endogenous AT1 receptor in A7)
Test: Whole-cell patch-clamp of INa and ILATE in M3q-DREADD iPS-CMs activated with CNO
Type: cell-based
Conditions: 100 nM CNO
Protocol: Control is CNO application to cells with no M3q. Mean±SD % fluorescence change for 20 cells per group; an example photobleaching montage is inset. […] Leftwards shifts in each parameter are precluded by U73122 or by 200 μM diC8-PIP2 in the pipette but are not sensitive to staurosporine or BAPTA. The cells were perfused with an extracellular solution containing (in mM): 130 NaCl, 5 CsCl, 1.2 MgCl2, 1.5 CaCl2), 8 Glucose, 10 HEPES (pH7.4). […] nitrendipine was added to the recording solution to block Ca^2+ flux through Cav channels. Patch pipettes with a resistance of 2.5-4 MQ are filled with a solution containing (in mM): 60 CsCl, 80 CsF, 2 MgCl2, 10 EGTA, 5 Na2ATP, 5 HEPES (pH 7.4). Currents were low pass (Bessel) filtered at 9 kHz and digitized at 50 kHz and were collected from cells with a series resistance <15 MQ; this was compensated by 70%.
Results. Studies are designed to evaluate if hydrolysis of PIP2 modulates Nav1.5 channel currents in cardiomyocytes. To perform these experiments, we used human iPS cardiomyocytes (iCell^2 iPS-CMs) from Fuji-Film Cellular Dynamics. These iPS-CMs are a valuable model system for human cardiomyocytes that retain many of the key characteristics of the native cells. Here, we transfected the iPS-CMs to express the Gαq-coupled M3q Designer Receptors Exclusively Activated by Designer Drugs (DREADD) receptor. We use a magnetic transfection system from Oz Biosciences that we have previously employed with cardiomyocytes. First, we tested the efficacy of M3q to hydrolyze PIP2 in our model system. To accomplish this, we studied uncoupling of the PIP2 biosensor iRFP-PHPLCδ1 from the plasma membrane in response to chemogenic activation of M3q by 100 nM clozapine N-oxide (CNO, Tocris Biosciences).
These findings are consistent with our prior observations and the work using optogenetically activated PI-phosphatases to deplete PIP2 in HEK293 cells […] Xenopus laevis oocytes. […] Having established a time frame for PIP2 hydrolysis in our system, we used whole-cell patch-clamp to study INa in paired experiments, before and after chemogenic activation of M3q. Applying 100 nM CNO evoked a leftward shift in the current-voltage (I-V) relationship of INa such that peak INa shifted from −25 to −35 mV. At −35 mV, the peak current-density increased from −220±5 pA/pF to −266±4 pA/pF at −35 mV (n=8, P<0.001, paired Student's t-test). […] However, in contrast to our findings with Nav1.4, activating M3q signaling also left-shifted the steady state inactivation curve of Nav1.5 (V½SSI), from −81.4±2 to −89.7±2 mV (n=8, P<0.01, paired t-test; FIGS. 2C, 2D). These studies indicate that Nav1.5 channels are regulated by hydrolysis of PIP2 and that there are distinctions between PIP2 regulation of Nav1.5 and Nav1.4.
Next, we studied the effect of M3q-activation on ILATE by recording currents evoked by a 400 ms depolarizing pulse to −20 mV before and during receptor activation. The magnitude of ILATE represents the mean current 150-200 ms after peak INa and is expressed as a percentage of peak INa. […] The effects of M3q activation on V½ACT, V½SSI, and the development of ILATE were not affected by staurosporine (1 μM, 1-hour preincubation) or BAPTA (10 mM in the recording pipette), making a role for IP3 or DAG unlikely. […] Similar data were obtained for Nav1.5 expressed with Navβ1 and the M3q-DREADD receptor in HEK293T cells. This experiment validates that the findings are not restricted to a particular model system or cellular environment.
Measure modulation in INa and ILATE by endogenous Gαq signaling. Like native cardiomyocytes, human iPS-CMs express AT1 receptors. Here, the effects of Ang II (Tocris) on Nav1.5 channel function in iPS-CMs is tested using four whole-cell patch-clamp recording protocols. […]

T1 sequence (Q14524 whole entry): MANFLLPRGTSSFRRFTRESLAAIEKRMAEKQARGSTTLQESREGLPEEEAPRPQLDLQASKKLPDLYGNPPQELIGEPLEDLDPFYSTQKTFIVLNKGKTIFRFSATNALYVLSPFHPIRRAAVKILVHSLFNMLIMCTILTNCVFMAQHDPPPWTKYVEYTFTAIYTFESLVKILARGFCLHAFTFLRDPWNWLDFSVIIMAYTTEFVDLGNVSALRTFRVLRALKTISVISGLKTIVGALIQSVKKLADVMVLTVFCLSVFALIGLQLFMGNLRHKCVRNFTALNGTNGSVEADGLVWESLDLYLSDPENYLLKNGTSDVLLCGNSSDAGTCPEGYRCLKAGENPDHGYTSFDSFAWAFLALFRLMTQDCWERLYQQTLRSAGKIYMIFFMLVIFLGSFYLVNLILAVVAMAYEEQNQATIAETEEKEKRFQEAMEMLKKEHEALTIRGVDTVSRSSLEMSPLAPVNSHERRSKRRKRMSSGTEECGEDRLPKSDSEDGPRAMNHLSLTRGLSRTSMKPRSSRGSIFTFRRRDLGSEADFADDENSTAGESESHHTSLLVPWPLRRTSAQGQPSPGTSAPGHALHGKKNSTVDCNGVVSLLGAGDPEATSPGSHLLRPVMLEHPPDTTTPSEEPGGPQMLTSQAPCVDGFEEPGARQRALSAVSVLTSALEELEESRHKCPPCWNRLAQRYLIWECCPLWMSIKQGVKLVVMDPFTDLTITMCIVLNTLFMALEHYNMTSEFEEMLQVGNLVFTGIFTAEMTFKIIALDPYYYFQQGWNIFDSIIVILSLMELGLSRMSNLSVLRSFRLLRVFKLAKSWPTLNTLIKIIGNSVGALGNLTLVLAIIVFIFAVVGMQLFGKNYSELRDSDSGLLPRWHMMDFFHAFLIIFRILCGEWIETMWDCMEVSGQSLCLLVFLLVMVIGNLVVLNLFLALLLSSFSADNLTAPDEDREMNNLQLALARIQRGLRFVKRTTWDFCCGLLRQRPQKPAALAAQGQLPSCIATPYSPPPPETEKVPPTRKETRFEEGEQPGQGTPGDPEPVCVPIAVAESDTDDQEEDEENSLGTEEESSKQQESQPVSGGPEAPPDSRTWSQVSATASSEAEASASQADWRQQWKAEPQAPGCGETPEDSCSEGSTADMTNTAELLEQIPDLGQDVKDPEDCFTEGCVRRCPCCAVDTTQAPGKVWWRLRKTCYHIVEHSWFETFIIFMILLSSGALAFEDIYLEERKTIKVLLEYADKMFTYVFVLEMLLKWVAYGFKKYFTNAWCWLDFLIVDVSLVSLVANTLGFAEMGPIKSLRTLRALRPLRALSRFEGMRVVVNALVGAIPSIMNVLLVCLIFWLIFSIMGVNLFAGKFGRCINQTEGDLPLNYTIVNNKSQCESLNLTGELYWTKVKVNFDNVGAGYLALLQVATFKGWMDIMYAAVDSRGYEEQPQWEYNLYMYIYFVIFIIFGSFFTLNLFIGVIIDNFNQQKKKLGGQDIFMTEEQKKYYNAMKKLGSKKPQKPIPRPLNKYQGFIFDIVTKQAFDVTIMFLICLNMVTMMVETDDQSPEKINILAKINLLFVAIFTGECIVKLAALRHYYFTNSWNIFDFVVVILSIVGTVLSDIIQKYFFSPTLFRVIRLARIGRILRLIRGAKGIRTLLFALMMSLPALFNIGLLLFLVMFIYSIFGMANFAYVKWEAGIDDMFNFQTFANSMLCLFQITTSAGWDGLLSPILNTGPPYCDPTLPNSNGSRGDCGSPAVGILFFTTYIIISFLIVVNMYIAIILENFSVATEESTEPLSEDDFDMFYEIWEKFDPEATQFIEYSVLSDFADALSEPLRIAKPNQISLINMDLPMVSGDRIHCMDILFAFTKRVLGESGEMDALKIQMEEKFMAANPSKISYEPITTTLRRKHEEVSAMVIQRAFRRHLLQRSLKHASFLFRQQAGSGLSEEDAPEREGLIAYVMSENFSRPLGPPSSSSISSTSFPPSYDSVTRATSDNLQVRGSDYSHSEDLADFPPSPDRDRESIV

CCCCCCCC(=O)OC[C@H](COP(=O)(O)O[C@@H]1[C@H](O)[C@H](O)[C@@H](OP(=O)(O)O)[C@H](OP(=O)(O)O)[C@H]1O)OC(=O)CCCCCCC [diC8-PIP2]
effect on CNO-evoked increase in ILATE (200 μM diC8-PIP2 in pipette): precluded | effect on CNO-evoked leftwards shifts in V½ACT and V½SSI (200 μM diC8-PIP2 in pipette): precluded | effect on CNO (M3q activation) effects on V½ACT, V½SSI and ILATE (staurosporine 1 μM 1-hour preincubation, BAPTA 10 mM in pipette, U73122 5 μM, diC8-PIP2 200 μM in pipette): blocked; also recorded: abolished
